In PMC7181660, “A novel specific PERK activator reduces toxicity and extends survival in Huntington's disease models” (Scientific Reports, 2020):
Like-named read-outs stand apart in the source and are kept apart here.

How the values were obtained:
Assay in all cases: biochemical
Format in all cases: biochemical
[1] = target: panel of 391 kinases (Homo sapiens, UniProt O75716); settings: STK16, MK-28 1 µM, ATP 1 µM
[2] = target: panel of 391 kinases (Homo sapiens, UniProt O94806); settings: PKCnu/PRKD3, MK-28 1 µM, ATP 1 µM
[3] = target: panel of 391 kinases (Homo sapiens, UniProt O96013); settings: PAK4, MK-28 1 µM, ATP 1 µM
[4] = target: panel of 391 kinases (Homo sapiens, UniProt P07947); settings: YES/YES1, MK-28 1 µM, ATP 1 µM
[5] = target: panel of 391 kinases (Homo sapiens, UniProt P23443); settings: p70S6K/RPS6KB1, MK-28 1 µM, ATP 1 µM
[6] = target: panel of 391 kinases (Homo sapiens, UniProt P29597); settings: TYK2, MK-28 1 µM, ATP 1 µM
[7] = target: panel of 391 kinases (Homo sapiens, UniProt P36888); settings: FLT3, MK-28 1 µM, ATP 1 µM
[8] = target: panel of 391 kinases (Homo sapiens, UniProt P41743); settings: PKCiota, MK-28 1 µM, ATP 1 µM
[9] = target: panel of 391 kinases (Homo sapiens, UniProt P42681); settings: TXK, MK-28 1 µM, ATP 1 µM
[10] = target: panel of 391 kinases (Homo sapiens, UniProt P42685); settings: FRK/PTK5, MK-28 1 µM, ATP 1 µM
[11] = target: panel of 391 kinases (Homo sapiens, UniProt P49761); settings: CLK3, MK-28 1 µM, ATP 1 µM
[12] = target: panel of 391 kinases (Homo sapiens, UniProt P50613); settings: CDK7/cyclin H, MK-28 1 µM, ATP 1 µM
[13] = target: panel of 391 kinases (Homo sapiens, UniProt P54646); settings: compound at 1 µM, single dose in duplicates, 1 µM ATP; for remaining activity at 1 µM: read-out: % Enzyme Activity (relative to DMSO controls)
[14] = target: panel of 391 kinases (Homo sapiens, UniProt Q06187); settings: BTK, MK-28 1 µM, ATP 1 µM
[15] = target: panel of 391 kinases (Homo sapiens, UniProt Q13873); settings: BMPR2, MK-28 1 µM, ATP 1 µM
[16] = target: panel of 391 kinases (Homo sapiens, UniProt Q15118); settings: kinase PDK1/PDHK1, compound at 1 µM, single dose in duplicates, 1 µM ATP
[17] = target: panel of 391 kinases (Homo sapiens, UniProt Q16816); settings: PHKg1, MK-28 1 µM, ATP 1 µM
[18] = target: panel of 391 kinases (Homo sapiens, UniProt Q5S007); settings: LRRK2, MK-28 1 µM, ATP 1 µM
[19] = target: panel of 391 kinases (Homo sapiens, UniProt Q8WXR4); settings: MYO3b, MK-28 1 µM, ATP 1 µM
[20] = target: panel of 391 kinases (Homo sapiens, UniProt Q96NX5); settings: CAMK1g, MK-28 1 µM, ATP 1 µM
[21] = target: panel of 391 kinases (Homo sapiens, UniProt Q96SB4); settings: SRPK1, MK-28 1 µM, ATP 1 µM
[22] = target: panel of 391 kinases (Homo sapiens, UniProt Q9BWU1); settings: CDK19/cyclin C, MK-28 1 µM, ATP 1 µM
[23] = target: panel of 391 kinases (Homo sapiens, UniProt Q9HAZ1); settings: CLK4, MK-28 1 µM, ATP 1 µM
[24] = target: panel of 391 kinases (Homo sapiens, UniProt Q9HBY8); settings: SGK2, MK-28 1 µM, ATP 1 µM
[25] = target: panel of 391 kinases (Homo sapiens, UniProt Q9HC98); settings: NEK6, MK-28 1 µM, ATP 1 µM
[26] = target: panel of 391 kinases (Homo sapiens, UniProt Q9P286); settings: PAK5, MK-28 1 µM, ATP 1 µM
[27] = read-out: % Enzyme Activity (relative to DMSO controls)

**Q.** `CN(/N=C\c1ccc(O)c(O)c1)c1nc(-c2ccccc2)cc(-c2ccccc2)n1` [MK-28] was tested. Which “% Enzyme Activity (relative to DMSO controls)” value [1] did it give?
**A.** 108.93%

**Q.** What about the remaining activity at 1 µM [1, 27] of the same compound?
**A.** 109%

**Q.** What about the “% Enzyme Activity (relative to DMSO controls)” value [2] of the same compound?
**A.** 97.83%

**Q.** What about the remaining activity at 1 µM [2, 27] of the same compound?
**A.** 98.1%

**Q.** What about the “% Enzyme Activity (relative to DMSO controls)” value [3] of the same compound?
**A.** 97.48%

**Q.** And the remaining activity at 1 µM [3, 27]?
**A.** 97.6%

**Q.** What about the “% Enzyme Activity (relative to DMSO controls)” value [4] of the same compound?
**A.** 96.24%

**Q.** What about the remaining activity at 1 µM [4, 27] of the same compound?
**A.** 97.6%

**Q.** What about the “% Enzyme Activity (relative to DMSO controls)” value [5] of the same compound?
**A.** 97.34%

**Q.** And the remaining activity at 1 µM [5, 27]?
**A.** 99%

**Q.** And the “% Enzyme Activity (relative to DMSO controls)” value [6]?
**A.** 90.72%

**Q.** And the remaining activity at 1 µM [6, 27]?
**A.** 91.3%

**Q.** And the “% Enzyme Activity (relative to DMSO controls)” value [7]?
**A.** 95.61%

**Q.** What about the remaining activity at 1 µM [7, 27] of the same compound?
**A.** 95.6%

**Q.** What about the “% Enzyme Activity (relative to DMSO controls)” value [8] of the same compound?
**A.** 105.00%

**Q.** What about the remaining activity at 1 µM [8, 27] of the same compound?
**A.** 105%

**Q.** And the “% Enzyme Activity (relative to DMSO controls)” value [9]?
**A.** 93.01%

**Q.** And the remaining activity at 1 µM [9, 27]?
**A.** 94.1%

**Q.** And the “% Enzyme Activity (relative to DMSO controls)” value [10]?
**A.** 100.16%

**Q.** And the remaining activity at 1 µM [10, 27]?
**A.** 101%

**Q.** And the “% Enzyme Activity (relative to DMSO controls)” value [11]?
**A.** 105.09%

**Q.** What about the remaining activity at 1 µM [11, 27] of the same compound?
**A.** 110%

**Q.** What about the “% Enzyme Activity (relative to DMSO controls)” value [12] of the same compound?
**A.** 106.19%

**Q.** What about the remaining activity at 1 µM [12, 27] of the same compound?
**A.** 108%

**Q.** And the “% Enzyme Activity (relative to DMSO controls)” value ([13]; kinase AMPK(A2/B1/G1))?
**A.** 91.41%

**Q.** What about the remaining activity at 1 µM ([13]; kinase AMPK(A2/B1/G1)) of the same compound?
**A.** 93%

**Q.** What about the “% Enzyme Activity (relative to DMSO controls)” value ([13]; kinase AMPK(A2/B2/G1)) of the same compound?
**A.** 106.33%

**Q.** What about the remaining activity at 1 µM ([13]; kinase AMPK(A2/B2/G1)) of the same compound?
**A.** 108%

**Q.** What about the “% Enzyme Activity (relative to DMSO controls)” value ([13]; kinase AMPK(A2/B2/G2)) of the same compound?
**A.** 103.36%

**Q.** And the remaining activity at 1 µM ([13]; kinase AMPK(A2/B2/G2))?
**A.** 104%

**Q.** And the “% Enzyme Activity (relative to DMSO controls)” value ([13]; kinase AMPK(A2/B2/G3))?
**A.** 96.60%

**Q.** What about the remaining activity at 1 µM ([13]; kinase AMPK(A2/B2/G3)) of the same compound?
**A.** 98.9%

**Q.** And the “% Enzyme Activity (relative to DMSO controls)” value [14]?
**A.** 85.19%

**Q.** What about the remaining activity at 1 µM [14, 27] of the same compound?
**A.** 85.4%

**Q.** What about the “% Enzyme Activity (relative to DMSO controls)” value [15] of the same compound?
**A.** 101.00%

**Q.** And the remaining activity at 1 µM [15, 27]?
**A.** 105%

**Q.** And the “% Enzyme Activity (relative to DMSO controls)” value [16]?
**A.** 100.80%

**Q.** What about the remaining activity at 1 µM [16, 27] of the same compound?
**A.** 101%

**Q.** What about the “% Enzyme Activity (relative to DMSO controls)” value [17] of the same compound?
**A.** 89.19%

**Q.** What about the remaining activity at 1 µM [17, 27] of the same compound?
**A.** 90.7%

**Q.** And the “% Enzyme Activity (relative to DMSO controls)” value [18]?
**A.** 90.69%

**Q.** And the remaining activity at 1 µM [18, 27]?
**A.** 92.2%

**Q.** What about the “% Enzyme Activity (relative to DMSO controls)” value [19] of the same compound?
**A.** 107.45%

**Q.** And the remaining activity at 1 µM [19, 27]?
**A.** 113%

**Q.** And the “% Enzyme Activity (relative to DMSO controls)” value [20]?
**A.** 96.34%

**Q.** What about the remaining activity at 1 µM [20, 27] of the same compound?
**A.** 100%

**Q.** And the “% Enzyme Activity (relative to DMSO controls)” value [21]?
**A.** 103.25%

**Q.** And the remaining activity at 1 µM [21, 27]?
**A.** 104%

**Q.** What about the “% Enzyme Activity (relative to DMSO controls)” value [22] of the same compound?
**A.** 105.26%

**Q.** And the remaining activity at 1 µM [22, 27]?
**A.** 108%

**Q.** What about the “% Enzyme Activity (relative to DMSO controls)” value [23] of the same compound?
**A.** 105.55%

**Q.** What about the remaining activity at 1 µM [23, 27] of the same compound?
**A.** 109%

**Q.** And the “% Enzyme Activity (relative to DMSO controls)” value [24]?
**A.** 79.78%

**Q.** And the remaining activity at 1 µM [24, 27]?
**A.** 81.3%

**Q.** And the “% Enzyme Activity (relative to DMSO controls)” value [25]?
**A.** 99.56%

**Q.** And the remaining activity at 1 µM [25, 27]?
**A.** 100%

**Q.** What about the “% Enzyme Activity (relative to DMSO controls)” value [26] of the same compound?
**A.** 72.57%

**Q.** And the remaining activity at 1 µM [26, 27]?
**A.** 77.2%
